ChEMBL document CHEMBL3991601, “The target landscape of clinical kinase drugs” (Science, 2017)
Structures can show the parent of a compound that is named as a salt. Activity calls are given as the source filed them. On the calls: in the data inactive means no Kd found up to 30 µM.

Experiments:
[1] = biological target: Cell division cycle 7-related protein kinase (Homo sapiens, UniProt O00311)
[2] = biological target: T1, Cyclin-dependent kinase-like 5 (Homo sapiens, UniProt O76039)
T1 sequence (O76039 whole entry): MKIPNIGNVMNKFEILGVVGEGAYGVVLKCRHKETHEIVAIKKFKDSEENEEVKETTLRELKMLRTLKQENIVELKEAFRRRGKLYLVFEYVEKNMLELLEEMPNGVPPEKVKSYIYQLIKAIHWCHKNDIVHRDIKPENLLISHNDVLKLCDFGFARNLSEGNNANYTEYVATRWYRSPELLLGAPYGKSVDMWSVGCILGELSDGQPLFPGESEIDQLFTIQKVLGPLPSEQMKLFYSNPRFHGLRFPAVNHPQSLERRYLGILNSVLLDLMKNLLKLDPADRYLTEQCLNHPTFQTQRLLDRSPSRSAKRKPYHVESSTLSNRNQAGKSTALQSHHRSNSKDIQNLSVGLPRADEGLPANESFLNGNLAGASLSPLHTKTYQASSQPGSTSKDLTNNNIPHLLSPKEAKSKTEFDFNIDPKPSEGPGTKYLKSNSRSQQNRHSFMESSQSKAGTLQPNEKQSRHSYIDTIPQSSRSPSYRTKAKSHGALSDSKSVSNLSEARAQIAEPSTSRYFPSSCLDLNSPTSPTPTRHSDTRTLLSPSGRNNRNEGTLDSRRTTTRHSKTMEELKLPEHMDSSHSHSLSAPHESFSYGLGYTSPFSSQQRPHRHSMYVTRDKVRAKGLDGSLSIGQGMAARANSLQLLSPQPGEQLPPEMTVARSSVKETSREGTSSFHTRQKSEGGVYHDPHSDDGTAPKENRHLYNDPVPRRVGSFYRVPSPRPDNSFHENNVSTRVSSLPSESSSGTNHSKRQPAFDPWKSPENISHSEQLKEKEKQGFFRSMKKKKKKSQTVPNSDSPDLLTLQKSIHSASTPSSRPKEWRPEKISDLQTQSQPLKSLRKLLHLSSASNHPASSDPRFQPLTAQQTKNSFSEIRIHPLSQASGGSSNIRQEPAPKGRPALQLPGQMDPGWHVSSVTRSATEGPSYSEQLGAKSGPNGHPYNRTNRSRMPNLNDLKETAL

[3] = biological target: Eukaryotic peptide chain release factor GTP-binding subunit ERF3B (Homo sapiens, UniProt Q8IYD1)
Sequence of Eukaryotic peptide chain release factor GTP-binding subunit ERF3B (Q8IYD1 whole entry): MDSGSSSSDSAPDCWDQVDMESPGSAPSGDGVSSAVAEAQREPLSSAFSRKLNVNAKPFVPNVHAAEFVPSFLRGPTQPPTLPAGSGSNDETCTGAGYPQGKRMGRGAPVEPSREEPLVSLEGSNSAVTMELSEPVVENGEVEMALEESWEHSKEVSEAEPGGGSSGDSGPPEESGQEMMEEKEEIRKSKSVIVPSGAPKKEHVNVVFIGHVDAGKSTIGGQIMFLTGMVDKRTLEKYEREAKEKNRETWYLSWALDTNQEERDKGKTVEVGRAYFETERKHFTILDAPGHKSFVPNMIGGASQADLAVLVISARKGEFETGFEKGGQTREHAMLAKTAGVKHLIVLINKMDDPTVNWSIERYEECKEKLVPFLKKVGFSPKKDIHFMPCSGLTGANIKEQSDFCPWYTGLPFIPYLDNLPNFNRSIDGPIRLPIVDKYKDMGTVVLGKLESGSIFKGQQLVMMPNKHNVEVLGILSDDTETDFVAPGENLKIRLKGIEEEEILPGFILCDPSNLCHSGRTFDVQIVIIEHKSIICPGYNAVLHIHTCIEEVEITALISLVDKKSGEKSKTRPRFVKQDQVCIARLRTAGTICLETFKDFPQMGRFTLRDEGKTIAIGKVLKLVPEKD

[4] = biological target: T2, Dual specificity protein kinase TTK (Homo sapiens, UniProt P33981)
T2 sequence (P33981 whole entry): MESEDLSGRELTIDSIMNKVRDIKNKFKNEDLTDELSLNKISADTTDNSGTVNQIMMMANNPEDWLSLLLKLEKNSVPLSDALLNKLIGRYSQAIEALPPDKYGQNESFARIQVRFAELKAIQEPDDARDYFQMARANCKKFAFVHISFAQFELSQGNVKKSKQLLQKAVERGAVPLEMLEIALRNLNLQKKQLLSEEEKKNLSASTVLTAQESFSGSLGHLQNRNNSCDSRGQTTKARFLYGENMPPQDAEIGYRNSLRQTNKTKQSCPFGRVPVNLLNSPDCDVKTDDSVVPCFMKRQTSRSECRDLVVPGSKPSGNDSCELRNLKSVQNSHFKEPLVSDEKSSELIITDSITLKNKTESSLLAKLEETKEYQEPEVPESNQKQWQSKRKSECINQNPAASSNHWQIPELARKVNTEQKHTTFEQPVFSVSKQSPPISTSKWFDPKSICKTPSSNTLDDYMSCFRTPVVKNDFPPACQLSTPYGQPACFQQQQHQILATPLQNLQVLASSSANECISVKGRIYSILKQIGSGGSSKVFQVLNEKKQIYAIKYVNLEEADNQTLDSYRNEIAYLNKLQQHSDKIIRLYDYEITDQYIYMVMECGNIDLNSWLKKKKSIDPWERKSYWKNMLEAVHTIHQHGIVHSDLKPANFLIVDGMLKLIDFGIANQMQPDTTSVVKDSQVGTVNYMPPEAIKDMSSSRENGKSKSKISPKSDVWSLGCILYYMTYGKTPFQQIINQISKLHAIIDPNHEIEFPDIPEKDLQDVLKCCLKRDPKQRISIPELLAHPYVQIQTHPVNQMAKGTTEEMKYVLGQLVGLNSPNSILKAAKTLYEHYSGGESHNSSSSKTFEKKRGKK

[5] = biological target: Dual specificity protein kinase CLK3 (Homo sapiens, UniProt P49761); type: subcellular, K-562, COLO 205, SK-N-BE(2) and MV-4-11, Cell lysate; conditions: read-out: Kd apparent
Sequence of Dual specificity protein kinase CLK3 (P49761 whole entry): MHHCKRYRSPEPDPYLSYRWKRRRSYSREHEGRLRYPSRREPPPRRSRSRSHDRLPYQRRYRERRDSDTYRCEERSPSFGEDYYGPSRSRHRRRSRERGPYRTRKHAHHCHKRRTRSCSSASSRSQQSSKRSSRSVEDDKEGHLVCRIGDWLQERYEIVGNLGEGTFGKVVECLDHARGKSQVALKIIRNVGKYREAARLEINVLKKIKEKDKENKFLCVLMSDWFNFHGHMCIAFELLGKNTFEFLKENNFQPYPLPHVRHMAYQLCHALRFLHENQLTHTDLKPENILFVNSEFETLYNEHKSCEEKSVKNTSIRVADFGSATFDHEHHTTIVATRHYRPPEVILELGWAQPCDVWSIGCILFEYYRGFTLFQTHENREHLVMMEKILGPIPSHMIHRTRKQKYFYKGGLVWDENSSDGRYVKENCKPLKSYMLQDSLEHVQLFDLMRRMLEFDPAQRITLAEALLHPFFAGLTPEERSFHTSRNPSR

[6] = biological target: Serine/threonine-protein kinase 38 (Homo sapiens, UniProt Q15208)
Sequence of Serine/threonine-protein kinase 38 (Q15208 whole entry): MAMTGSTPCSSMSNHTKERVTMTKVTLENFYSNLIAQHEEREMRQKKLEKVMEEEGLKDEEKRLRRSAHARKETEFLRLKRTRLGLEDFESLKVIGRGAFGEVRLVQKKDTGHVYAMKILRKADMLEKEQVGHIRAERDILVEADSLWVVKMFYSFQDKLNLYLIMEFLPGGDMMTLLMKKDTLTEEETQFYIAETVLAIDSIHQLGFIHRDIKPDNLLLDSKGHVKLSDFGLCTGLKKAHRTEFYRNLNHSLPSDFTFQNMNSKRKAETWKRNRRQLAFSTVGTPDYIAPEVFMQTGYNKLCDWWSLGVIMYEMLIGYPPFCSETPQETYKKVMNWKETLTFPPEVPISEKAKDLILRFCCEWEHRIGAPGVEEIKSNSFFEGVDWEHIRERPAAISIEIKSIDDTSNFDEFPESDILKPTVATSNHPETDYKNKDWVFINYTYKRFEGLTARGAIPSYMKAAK

[7] = biological target: Serine/threonine-protein kinase PLK1 (Homo sapiens, UniProt P53350)
Sequence of Serine/threonine-protein kinase PLK1 (P53350 whole entry): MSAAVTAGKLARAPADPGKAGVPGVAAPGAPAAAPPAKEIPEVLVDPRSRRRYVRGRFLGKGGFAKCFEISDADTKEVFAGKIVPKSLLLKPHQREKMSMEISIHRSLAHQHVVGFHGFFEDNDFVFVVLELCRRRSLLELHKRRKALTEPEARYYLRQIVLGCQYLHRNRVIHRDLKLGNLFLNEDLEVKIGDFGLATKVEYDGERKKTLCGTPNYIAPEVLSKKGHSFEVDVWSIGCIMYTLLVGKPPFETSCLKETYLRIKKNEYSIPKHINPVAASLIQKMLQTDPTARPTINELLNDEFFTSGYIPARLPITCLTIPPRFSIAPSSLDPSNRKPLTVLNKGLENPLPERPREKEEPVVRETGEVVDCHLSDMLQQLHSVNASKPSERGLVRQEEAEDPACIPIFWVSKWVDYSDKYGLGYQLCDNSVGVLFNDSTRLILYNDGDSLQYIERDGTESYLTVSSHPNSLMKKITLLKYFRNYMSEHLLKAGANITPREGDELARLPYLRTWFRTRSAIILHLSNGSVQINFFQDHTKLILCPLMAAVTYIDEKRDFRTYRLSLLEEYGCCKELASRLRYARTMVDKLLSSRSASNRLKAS

[8] = biological target: Cyclin-dependent kinase 10 (Homo sapiens, UniProt Q15131)
Sequence of Cyclin-dependent kinase 10 (Q15131 whole entry): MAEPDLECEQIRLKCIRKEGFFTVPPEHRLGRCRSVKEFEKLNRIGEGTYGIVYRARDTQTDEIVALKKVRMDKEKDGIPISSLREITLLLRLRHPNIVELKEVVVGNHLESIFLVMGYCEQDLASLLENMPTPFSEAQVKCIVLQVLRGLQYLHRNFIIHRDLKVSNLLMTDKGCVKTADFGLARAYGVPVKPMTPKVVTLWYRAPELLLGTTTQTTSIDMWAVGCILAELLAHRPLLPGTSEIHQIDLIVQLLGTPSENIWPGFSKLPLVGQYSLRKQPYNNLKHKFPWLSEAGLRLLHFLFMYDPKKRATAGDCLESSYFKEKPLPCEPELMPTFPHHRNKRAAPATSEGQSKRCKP

Sequence of Cell division cycle 7-related protein kinase (O00311 whole entry): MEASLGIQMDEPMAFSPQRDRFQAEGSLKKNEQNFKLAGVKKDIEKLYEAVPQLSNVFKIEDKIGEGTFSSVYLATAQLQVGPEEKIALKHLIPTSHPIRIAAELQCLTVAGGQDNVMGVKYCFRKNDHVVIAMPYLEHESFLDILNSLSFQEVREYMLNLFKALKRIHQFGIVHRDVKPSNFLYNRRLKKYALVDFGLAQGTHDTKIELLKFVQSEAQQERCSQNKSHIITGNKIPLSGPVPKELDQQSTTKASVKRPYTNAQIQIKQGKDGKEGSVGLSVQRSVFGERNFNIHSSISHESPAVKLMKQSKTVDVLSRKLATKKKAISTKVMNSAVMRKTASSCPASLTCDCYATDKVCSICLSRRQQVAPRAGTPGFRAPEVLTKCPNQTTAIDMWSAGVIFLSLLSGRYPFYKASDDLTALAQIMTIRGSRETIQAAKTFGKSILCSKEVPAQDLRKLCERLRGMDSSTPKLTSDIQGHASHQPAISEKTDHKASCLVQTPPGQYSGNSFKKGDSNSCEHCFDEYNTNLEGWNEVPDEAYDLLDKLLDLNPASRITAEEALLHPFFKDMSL

| Compound | Kd [1] | Kd [2] | Kd [4] | Kd [5] | other results |
| --- | --- | --- | --- | --- | --- |
| C[C@@H](Oc1cc(C(=O)Nc2ccc(C(=O)N3CCN(C)CC3)cc2)nnc1N)c1c(Cl)ccc(F)c1Cl | > 30 µM (inactive) | – | – | – | – |
| C[C@H]1CNCCCN1S(=O)(=O)c1cccc2cncc(F)c12 | – | > 30 µM (inactive) | > 30 µM (inactive) | – | Kd [3]: > 30 µM (inactive) |
| CCNC(=O)C#Cc1ccc2c(c1)NC(=O)/C2=C(\Nc1ccc(CN(C)C)cc1)c1ccccc1 | 3.99 µM (active) | 0.02 µM (active) | – | > 30 µM (inactive) | Kd [6]: > 30 µM (inactive) |
| C=CC(=O)N1CCC[C@H](n2c(=O)n(-c3ccc(Oc4ccccc4)cc3)c3c(N)ncnc32)C1 | – | > 30 µM (inactive) | – | > 30 µM (inactive) | Kd [7]: > 30 µM (inactive) |
| CNC(=O)c1ccccc1Sc1ccc2c(/C=C/c3ccccn3)n[nH]c2c1 [AXITINIB] | > 30 µM (inactive) | – | – | – | Kd [3]: > 30 µM (inactive) |
| COc1cc([C@@H]2c3cc4c(cc3[C@H](O)[C@H]3COC(=O)[C@@H]23)OCO4)cc(OC)c1OC [AXL-1717] | > 30 µM (inactive) | – | > 30 µM (inactive) | – | Kd [8]: > 30 µM (inactive); Kd [6]: > 30 µM (inactive) |
| COc1cc2ncnc(Oc3cccc(NC(=O)Nc4cc(C(C)(C)C(F)(F)F)on4)c3)c2cc1OC [CEP-32496] | > 30 µM (inactive) | – | > 30 µM (inactive) | > 30 µM (inactive) | Kd [8]: > 30 µM (inactive); Kd [6]: > 30 µM (inactive); Kd [7]: > 30 µM (inactive) |
| CCS(=O)(=O)N1CCN(c2ccc(Nc3ncc(C(N)=O)c(NC4CC4)n3)cc2)CC1 [Cerdulatinib Hydrochloride] | > 30 µM (inactive) | > 30 µM (inactive) | – | – | – |
| Cn1cc(C2=C(c3cn(C4CCN(Cc5ccccn5)CC4)c4ccccc34)C(=O)NC2=O)c2ccccc21 [ENZASTAURIN] | > 30 µM (inactive) | – | – | – | – |
| O=C(Nc1cc(C(F)(F)F)cc(C(F)(F)F)c1)c1cc(Cl)ccc1O [IMD-0354] | > 30 µM (inactive) | > 30 µM (inactive) | > 30 µM (inactive) | > 30 µM (inactive) | – |
| CNC(=O)c1cccc2cc(Oc3ccnc4cc(OCC5(N)CC5)c(OC)cc34)ccc12 [LUCITANIB] | > 30 µM (inactive) | > 30 µM (inactive) | > 30 µM (inactive) | – | Kd [7]: > 30 µM (inactive) |
| CCOc1cc2ncc(C#N)c(Nc3ccc(F)c(Cl)c3)c2cc1NC(=O)/C=C/CN(C)C [PELITINIB] | > 30 µM (inactive) | – | > 30 µM (inactive) | – | Kd [8]: > 30 µM (inactive); Kd [6]: > 30 µM (inactive); Kd [7]: > 30 µM (inactive) |
| CC(=O)NCC(=O)N1[C@@H]2CC[C@H]1c1ccc(Nc3ncc(C(F)(F)F)c(NC4CCC4)n3)cc12 [PF-03814735] | – | – | > 30 µM (inactive) | > 30 µM (inactive) | – |
| O=C(NOCCO)c1cc(CN2OCCCC2=O)c(F)c(F)c1Nc1ccc(I)cc1F [RO-4987655] | > 30 µM (inactive) | – | – | – | – |
| N#CC[C@H](C1CCCC1)n1cc(-c2ncnc3[nH]ccc23)cn1 [RUXOLITINIB] | > 30 µM (inactive) | – | – | – | Kd [3]: > 30 µM (inactive) |
| CCS(=O)(=O)c1cccc(-c2cc(C(=O)NC3CCN(C)CC3)c(C)c3[nH]c4ncc(C)cc4c23)c1 [TAK-901] | > 30 µM (inactive) | – | > 30 µM (inactive) | – | – |
| COc1cc2c(Nc3ccc(Cl)c(Cl)c3F)ncnc2cc1OC[C@@H]1C[C@@H]2CN(C)C[C@@H]2C1 [TESEVATINIB] | – | > 30 µM (inactive) | > 30 µM (inactive) | > 30 µM (inactive) | – |
| O=C1NC(=O)[C@@H](c2cn3c4c(cccc24)CCC3)[C@@H]1c1c[nH]c2ccccc12 [TIVANTINIB] | – | – | – | > 30 µM (inactive) | – |
| Cn1ncc(Cl)c1-c1cc(C(=O)N[C@H](CN)Cc2ccc(F)c(F)c2)oc1Cl [UPROSERTIB] | – | – | > 30 µM (inactive) | – | Kd [6]: > 30 µM (inactive) |
| CC(C)c1cc(CNc2nc(Nc3cc(C4CC4)[nH]n3)cc(N3CCN(C)CC3)n2)on1 [XL-228] | – | > 30 µM (inactive) | > 30 µM (inactive) | – | Kd [7]: > 30 µM (inactive) |
| CN1C/C=C/CCOc2cccc(c2)-c2ccnc(n2)Nc2cccc(c2)C1 [ZOTIRACICLIB] | – | > 30 µM (inactive) | – | – | – |
